Data as given in patent US20230355597A1, “COMPOUNDS, COMPOSITIONS, AND METHODS FOR THE TREATMENT AND PREVENTION OF AVIAN PATHOGENIC E. COLI (APEC)” (OHIO STATE INNOVATION FOUNDATION, priority 2018, published 2023).
Marks after values point to notes of the source that are not given here.

Tests used:
[1] = tested on: AI-2 activity of APEC O115; assay: AI-2 bioluminescence indicator assay (V. harveyi BB170); conditions: APEC O115, 100 µM
APEC O2 in HD-11 cells = assay: Intracellular survival assay (AI-2 inhibitors); conditions: O2, HD-11, 100 µM, 6 h
[2] = tested on: AI-2 activity of APEC O35; assay: AI-2 bioluminescence indicator assay (V. harveyi BB170); conditions: APEC O35, 100 µM
AI-2 activity of APEC O8 = assay: as above; conditions: APEC O8, 100 µM
[3] = tested on: QS and virulence associated genes of APEC O78; assay: qRT-PCR of QS-regulated and virulence factors genes; format: cell-based, avian pathogenic Escherichia coli (APEC); conditions: 100 µM, 10 h
Experimental: Quantitative real-time reverse transcription PCR (qRT-PCR). […] APEC O78 was grown in the presence of 100 µM of each compound in a 96-well plate at 37° C. for 10 h. APEC O78 culture treated with 1 µL of 100% DMSO was used as […]. Total RNA was extracted from duplicate wells for each compound (200 µL) using a miRNeasy Mini Kit (Qiagen). RNA quality and quantity was determined by nanodrop 2000 C spectrophotometer (Thermo scientific). Traces of DNA was removed using Genomic DNA removal mix (Qiagen). Approximately, 5 µg of purified RNA was used to synthesize cDNA using the Qiagen RT^2 First Strand Kit (Qiagen). The qRT-PCR was performed using SensiMix™ SYBER® Hi-Rox qPCR Master Mix (Bioline) according to manufacturer instructions in a realplex^2 mastercycler (Eppendorf) with 55° C. annealing temperature. Gene-specific primers were designed using PrimerQuest Tool and obtained from integrated DNA technologies (IDT). The data were normalized to the house-keeping gene, glyceraldehyde-3-phosphate dehydrogenase (GAPDH). The relative fold change was calculated using the ΔΔCt method. Three independent experiments were conducted.

Rif^r APEC O78 [4] = assay: In vivo screening of quorum sensing inhibitors in APEC infected broiler chickens
AI-2 activity of APEC O1 = assay: AI-2 bioluminescence indicator assay (V. harveyi BB170); conditions: APEC O1, 100 µM
[5] = tested on: AI-2 activity of APEC O78; assay: as above; conditions: APEC O78, 100 µM
Rif^r APEC O78 [6] = assay: Wax moth (Galleria mellonella) larva infection model (AI-2 inhibitors); conditions: 48 h post treatment
[7] = tested on: AI-2 activity of APEC O109; assay: AI-2 bioluminescence indicator assay (V. harveyi BB170); conditions: APEC O109, 100 µM
[8] = tested on: AI-2 activity of APEC O15; assay: as above; conditions: APEC O15, 100 µM
[9] = tested on: AI-2 activity of APEC O18; assay: as above; conditions: APEC O18, 100 µM
AI-2 activity of APEC O2 = assay: as above; conditions: APEC O2, 100 µM
APEC O18 = format: cell-based, avian pathogenic Escherichia coli (APEC); conditions: APEC O18, M63 media; MIC/MBC
[10] = tested on: intracellular APEC O1 in HD11 cells; assay: Intracellular survival assay (cidal SMs); conditions: O1, HD11, 6 h treatment; superscript = multiple of MIC
APEC O78-53 = format: cell-based, avian pathogenic Escherichia coli (APEC); conditions: APEC O78-53, M63 media; MIC/MBC
[11] = tested on: intracellular APEC O78, O2, and O1 in infected Caco-2, HD11, and THP1 cells; assay: Intracellular survival assay (cidal SMs), summary over serotypes and cells; conditions: overall ranking
[12] = tested on: intracellular APEC O78 in HD11 cells; assay: Intracellular survival assay (cidal SMs); conditions: O78, HD11, 6 h treatment; superscript = multiple of MIC
APEC O115 = format: cell-based, avian pathogenic Escherichia coli (APEC); conditions: APEC O115, M63 media; MIC/MBC
APEC O78 [13] = assay: Loss of 260/280 nm absorbing materials assay; format: cell-based, avian pathogenic Escherichia coli (APEC); conditions: 2X MBC, 1 h, *P<0.05 vs DMSO
APEC O1-63 = format: cell-based, avian pathogenic Escherichia coli (APEC); conditions: APEC O1-63, M63 media; MIC/MBC
[14] = tested on: intracellular APEC O1 in Caco-2 cells; assay: Intracellular survival assay (cidal SMs); conditions: O1, Caco-2, 6 h treatment; superscript = multiple of MIC
APEC O2 = format: cell-based, avian pathogenic Escherichia coli (APEC); conditions: APEC O2, M63 media; MIC/MBC
APEC O2-211 = format: cell-based, avian pathogenic Escherichia coli (APEC); conditions: APEC O2-211, M63 media; MIC/MBC
APEC O109 = format: cell-based, avian pathogenic Escherichia coli (APEC); conditions: APEC O109, M63 media; MIC/MBC
[15] = tested on: intracellular APEC O2 in Caco-2 cells; assay: Intracellular survival assay (cidal SMs); conditions: O2, Caco-2, 6 h treatment; superscript = multiple of MIC
APEC O15 = format: cell-based, avian pathogenic Escherichia coli (APEC); conditions: APEC O15, M63 media; MIC/MBC
[16] = tested on: intracellular APEC O78 in THP-1 cells; assay: Intracellular survival assay (cidal SMs); conditions: O78, THP-1, 6 h treatment; superscript = multiple of MIC
[17] = tested on: intracellular APEC O2 in THP-1 cells; assay: Intracellular survival assay (cidal SMs); conditions: O2, THP-1, 6 h treatment; superscript = multiple of MIC
APEC O1 = format: cell-based, avian pathogenic Escherichia coli (APEC); conditions: APEC O1, M63 media; MIC/MBC
[18] = tested on: intracellular APEC O78 in Caco-2 cells; assay: Intracellular survival assay (cidal SMs); conditions: O78, Caco-2, 6 h treatment; superscript = multiple of MIC
APEC O8 = format: cell-based, avian pathogenic Escherichia coli (APEC); conditions: APEC O8, M63 media; MIC/MBC
APEC O78 [19] = format: cell-based, avian pathogenic Escherichia coli (APEC); conditions: APEC O78, M63 media; cell prints MIC/MBC
APEC O78 [20] = assay: Confocal microscopy bacterial cytological profiling; format: cell-based, avian pathogenic Escherichia coli (APEC); conditions: 2X MBC
Experimental: Confocal and scanning electron microscopy. Confocal microscopy was used for bacterial cytological profiling (BCP) to identify the cellular pathways targeted by SMs as described previously. […] After incubation, treated cultures were centrifuged, washed, and resuspended in 100 μL PBS. […] Cultures were then centrifuged, washed, and resuspended in PBS to 1⁄10th volume of the original cultures.

[21] = tested on: intracellular APEC O1 in THP-1 cells; assay: Intracellular survival assay (cidal SMs); conditions: O1, THP-1, 6 h treatment; superscript = multiple of MIC
APEC O35 = format: cell-based, avian pathogenic Escherichia coli (APEC); conditions: APEC O35, M63 media; MIC/MBC
[22] = tested on: intracellular APEC O2 in HD11 cells; assay: Intracellular survival assay (cidal SMs); conditions: O2, HD11, 6 h treatment; superscript = multiple of MIC
[23] = tested on: biofilm embedded APEC O78; assay: MBEC High-throughput assay; format: cell-based, avian pathogenic Escherichia coli (APEC); conditions: biofilm embedded APEC O78; superscript = multiple of MIC (footnote)
Experimental: Effect against biofilm embedded APEC. The effect of cidal SMs against biofilm embedded APEC was determined using MBEC High-throughput (HTP) assay (Innovotech Inc., AB, Canada). Briefly, 150 µL of 0.05 OD600 adjusted APEC O78 culture was aliquoted into each well of the MBEC device containing polystyrene pegs and incubated at 37° C. for 36 h in LB media under stationary condition. […] The plate was incubated in the dark for 18 h at 37° C. with rotation at 110 rpm. The DMSO (1%) and M63 media were used as positive and negative controls, respectively. Following incubation, MIC of SMs in challenged plate was recorded. The SMs exposed pegs were then transferred to a new 96-well plate containing PBS and sonicated for 30 mins (Aquasonic ultrasonic cleaner, VWR) to disrupt the biofilm. […] Biofilm embedded APEC bacteria were enumerated and minimum biofilm eradication concentration (MBEC) of […] were determined. Two independent experiments were conducted.

For `Cc1ccc(CN2CCN(CCCc3ccccc3)CC2)cc1` [C5], which “Inhibition % of AI-2 activity” value [1] is on record?
Its value is 63%.

What about the “clearance of intracellular APEC” value (APEC O2 in HD-11 cells) of the same molecule?
The value was 100%.

And the “reduction of intracellular survival” value (APEC O2 in HD-11 cells; vs DMSO)?
Its value is 3.3 logs.

And the “Inhibition % of AI-2 activity” value [2]?
The value was 68%.

What about the “Inhibition % of AI-2 activity” value (AI-2 activity of APEC O8) of the same molecule?
Its value is 18%.

And the “expression of fliP” value [3]?
The value was “down-regulated”.

And the expression of fpr [3]?
The expression of fpr was “down-regulated”.

What about the “reduction in chicken mortality” value (Rif^r APEC O78 [4]; DMSO control mortality normalized to 100%) of the same molecule?
Its value is 100%.

What about the “average lesion score reduction” value (Rif^r APEC O78 [4]; liver, heart, lung and airsac, vs DMSO) of the same molecule?
Its value is 2.1-2.3.

And the “reduction of bacterial load in internal organs” value (Rif^r APEC O78 [4]; liver, lung, heart, and kidney, vs DMSO control, 'up to')?
The value was 5.2-6.1 log CFU/g.

What about the “Mortality rate (%)” value (Rif^r APEC O78 [4]; oral gavage once a day, day 4 to day 8, DMSO control 66.7%) of the same molecule?
Its value is 0%.

And the “Reduction in APEC lesions severity, Air-sacs (%)” value (Rif^r APEC O78 [4]; vs DMSO treated control)?
The value was 93.3%.

And the “Reduction in APEC lesions severity, Heart (%)” value (Rif^r APEC O78 [4]; vs DMSO treated control)?
Its value is 87.5%.

What about the “Reduction in APEC lesions severity, Liver (%)” value (Rif^r APEC O78 [4]; vs DMSO treated control) of the same molecule?
Its value is 81.8%.

And the “Reduction in APEC lesions severity, Lung (%)” value (Rif^r APEC O78 [4]; vs DMSO treated control)?
The value was 88.9%.

And the “effect on body weight gain” value (Rif^r APEC O78 [4]; vs non-treated and non-infected control group)?
The value was “increased BWG”.

And the “Inhibition % of AI-2 activity” value (AI-2 activity of APEC O1)?
The value was 46%.

What about the “Inhibition % of AI-2 activity” value [5] of the same molecule?
Its value is 83%.

And the larval death (Rif^r APEC O78 [6])?
The larval death was “no larval death”.

What about the “Inhibition % of AI-2 activity” value [7] of the same molecule?
Its value is 69%.

What about the “Inhibition % of AI-2 activity” value [8] of the same molecule?
Its value is 45%.

And the “Inhibition % of AI-2 activity” value [9]?
Its value is 61%.

What about the “Inhibition % of AI-2 activity” value (AI-2 activity of APEC O2) of the same molecule?
Its value is 89%.

Which results are given for `CC1CCC(C(C)C)C(OC(=O)Cn2c[n+](CC(=O)OC3CC(C)CCC3C(C)C)c3ccccc32)C1.[Cl-]` (stereo not shown) [SM4]?
MBC (APEC O18): 50 µM; MIC (APEC O18): 25 µM; SMs intracellular APEC clearance concentration [10]: 50^b µM; MBC (APEC O78-53): 50 µM; MIC (APEC O78-53): 25 µM; effectiveness in clearing intracellular APEC serotypes in all tested cells [11]: most effective; SMs intracellular APEC clearance concentration [12]: 50^b µM; MBC (APEC O115): 25 µM; MIC (APEC O115): 25 µM; Absorbance 260 (APEC O78 [13]; 260 nm absorbing material in supernatant): 3.91*; Absorbance 280 (APEC O78 [13]; 280 nm absorbing material in supernatant): 2.69*; MBC (APEC O1-63): 50 µM; MIC (APEC O1-63): 25 µM; SMs intracellular APEC clearance concentration [14]: 100^c µM; MBC (APEC O2): 50 µM; MIC (APEC O2): 25 µM; MBC (APEC O2-211): 25 µM; MIC (APEC O2-211): 25 µM; MBC (APEC O109): 25 µM; MIC (APEC O109): 25 µM; SMs intracellular APEC clearance concentration [15]: 100^c µM; MBC (APEC O15): 25 µM; MIC (APEC O15): 25 µM; SMs intracellular APEC clearance concentration [16]: 56^b µM; SMs intracellular APEC clearance concentration [17]: 100^c µM; MBC (APEC O1): 50 µM; MIC (APEC O1): 25 µM; SMs intracellular APEC clearance concentration [18]: 50^b µM; MBC (APEC O8): 25 µM; MIC (APEC O8): 25 µM; MBC (APEC O78 [19]): 50 µM; MIC (APEC O78 [19]): 25 µM; cytological profile (confocal, FM4-64 / SYTO-9) (APEC O78 [20]): membrane disruptors; SMs intracellular APEC clearance concentration [21]: >100 µM; MBC (APEC O35): 25 µM; MIC (APEC O35): 25 µM; SMs intracellular APEC clearance concentration [22]: 50^b µM; MBEC [23]: 25^a µM
